From patent publication US20060106028A1, “Polycyclic aromatics and derivatives thereof and processes for their preparation” (priority 2004, published 2006)
In brackets after ≈: the same amount, converted by molar mass.

Columns and labels:
[1] = test system: MDA-MB-231 (mammary gland adenocarcinoma); test: In vitro tumor growth inhibition (GI50, propidium iodide); type: cell-based; details: Homo sapiens, 96 hrs
[2] = test system: PC-3 (prostate adenocarcinoma); test: as above; type: cell-based; details: 96 hrs
SF268 (CNS) = test: as above; type: cell-based; details: Homo sapiens; SF-268; 96 hrs
36 cancer cell lines = test: In vitro cytotoxic activity, mean of all cell lines of the panel; type: cell-based; details: mean over the 36 cell lines
Method: Culture conditions and activity evaluations of Compound 1 against 36 cancer cell lines were done as described below. Results were expressed as the concentration of drug which inhibits 50% of the cell growth (IC50, calculated using the formula: [Ti/C]×100=−50).
The compound was dissolved at 10 mM in DMSO. Dilution in vehicle to concentrations of 30, 10, 3, 1 and 0.3 μM were prepared immediately before assays. Depending on the cell line's growth characteristics, 4000-10000 cells were plated in two 96-wells pates (day 0) and incubated for 16 hours. The following day, propidium iodide was added to one of the two plates. Test compound was added to the second plate, as well as vehicle control, and cells further incubated for 96 hours. The compound was tested at each concentration and in triplicates. The equivalent cell number was determined after adding propidium iodide by measuring the signal by fluorescence (Ti for test article, C for control).

Sheep red blood cells = test: In vitro toxicity: hemolytic activity; type: cell-based; details: 2 hrs at 37° C.; 2 to 64 μg/mL; prepared in DMSO or in 6% Tween/4.5% Glycocholate/5% EtOH formulation
Method: In vitro toxicity: Sheep red blood cells were exposed to Compound 1 for 2 hrs at 37° C. at concentrations ranging from 2 to 64 μg/mL. Hemolytic activity was determined by monitoring the amount of hemoglobin released spectrophotometrically.

CRL nu/nu mice = test: Repeated dose toxicity in CRL nu/nu mice; type: in vivo
Method: Repeated dose toxicity was evaluated in CRL nu/nu mice (6% Tween/4.5% Glycocholate/5% EtOH formulation). The MTTD (maximum total tolerated dose) was 25 mg/kg with a qd×4 dosage regimen.

[3] = In vivo pharmacokinetic profile (plasma levels); parameters: species or system CD-1 mice; details: CD-1, mouse, 25 mg/kg single dose, CD1 female mice
Method: Pharmacokinetic profile of Compound 1 was determined in CD-1 mice (FIG. 1). CD1 female mice (6 weeks of age) received a single intravenous or intraperitoneal dose of Compound 1 (25 mg/kg; 5 mL/kg) in […]/4.5% Glycocholate/5% EtOH formulation. Blood was collected into EDTA-containing tubes by cardiac puncture. Quantification of Compound 1 plasma levels was done by high performance liquid chromatographic-mass spectrometric method. Cmax values represent the maximum observed plasma concentration and AUC represents the area under the plasma concentration versus time curve (Table 6).

[4] = test system: Enterococcus faecalis VRE-2 (ATCC™ 51299); test: Antibacterial activity, MIC (NCCLS M7-A5); type: cell-based; details: BHI+ medium, 35° C., 16 to 20 hours
[5] = test system: Streptococcus pneumoniae PenR (LSPQ 3349); test: Antibacterial activity, MIC (NCCLS M7-A5); type: cell-based; details: MH medium +2% lysed horse blood
[6] = test system: Clostridium difficile (ATCC™ 9689); test: Antibacterial activity, MIC (NCCLS M11-A5, anaerobic); type: cell-based; details: Clostridioides difficile; Brucella medium with hemin, vitamin K1 and 5% lysed horse blood; read-out: MIC
Method: Antibacterial activity of Compounds 1 and 2 (Table 7) was measured by determining the minimal inhibitory concentration (MIC) necessary to obtain a complete inhibition of bacteria growth in seven indicator strains, namely Staphylococcus aureus (ATCC™ 6538P), Staphylococcus aureus MRS3 (ATCC™ 700699), Enterococcus faecalis VRE-1 (ATCC™ 29212), Enterococcus faecalis VRE-2 (ATCC™ 51299), Escherichia coli (ATCC™ 25922), Streptococcus pneumoniae (LSPQ 3412) and Streptococcus pneumoniae PenR (LSPQ 3349). Indicator strains preparation and MIC determination were performed according to the National Committee for Clinical Laboratory Standards (NCCLS) guideline M7-A5 Methods for Dilution Antimicrobial Susceptibility Tests for Bacteria That Grow Aerobically; Approved Standard-Fifth Edition. (NCCLS document M7-A5, ISBN 1-56238-394-9; NCCLS, 940 West Valley Road, Suite 1400, Wayne, Pa. 19087-1898 USA), the content of which is incorporated herein by reference. MIC determination against C. difficile was performed according to National Committee for Clinical Laboratory Standards (NCCLS) guideline M11-A5 Methods for Antimicrobial Susceptibility Testing of Anaerobic Bacteria.
Compounds 1 and 2 were prepared as 100× stock solutions in DMSO, with concentrations ranging from 3.2 mg/mL to 0.003 mg/mL (a two-fold dilution series over 11 points). An aliquot of each 100× stock solution was diluted 50-fold in test medium described below to give a set of eleven (11) 2× solutions. 50 μL of each of the eleven 2× solutions was aliquoted into the corresponding well of a 12-well row, with the final well reserved for medium alone control.
Vancomycin (Sigma™), used as positive control compound, was prepared as 2× stock solutions in Mueller-Hinton test medium ranging from 64 μg/mL to 0.06 μg/ml (a two-fold dilution series over 11 points). An aliquot of 50 μL corresponding to each concentration (at 2×) was then transferred to 96-well microplates to obtain a series of eleven two-fold dilutions.
An isolated colony of each of the indicator strains was used to inoculate tubes containing 2 mL of test medium. […]

`CCC(C)c1cc2c(=O)c3ccc4c(OC)c5c(=O)c6c(O)ccc(O)c6c(=O)c5c(O)c4c3c(=O)c2c(=O)n1CC(=O)N1CC(C(=O)O)NC(=O)C1C` (centres unmarked) [Compound 1] gave a GI50 [1] of 14.6 µM, a GI50 [2] of 11.1 µM and a GI50 (SF268 (CNS)) of 3.36 µM. For the same compound, the IC50 (36 cancer cell lines) was 9.34 µM, the “Hemolytic activity (hemoglobin released)” value (Sheep red blood cells) was “did not display hemolytic activity up to 64 μg/mL” and the “MTTD (maximum total tolerated dose)” value (CRL nu/nu mice; qd×4 dosage regimen, 6% Tween/4.5% Glycocholate/5% EtOH formulation) was 25 mg/kg. For the same compound, the “Organ findings following repeated dosage” value (CRL nu/nu mice; spleen and liver, repeated dosage) was “Adaptive hypertrophy and hyperplasia were observed in spleen and liver”, the AUC ([3]; ip) was 649 µg·h/mL and the Cmax ([3]; ip) was 111 µg/mL. For the same compound, the AUC ([3]; iv) was 1180 µg·h/mL, the Cmax ([3]; iv) was 227 µg/mL and the MIC [4] was 0.125 µg/mL (≈ 0.169 µM). The MIC [5] was 4 to 16 µg/mL (≈ 5.42 to 21.7 µM) and the MIC [6] was 0.06 µg/mL (≈ 0.0813 µM).
